# Laboratory results from paper PMC13485499, “Neoliensinine promotes lysosomal cell death in T cell malignancies via a novel STING-TUBA1B pathway” (Genes & Diseases, 2025).
# Target: T1, Stimulator of interferon genes (STING) (Homo sapiens, UniProt Q86WV6)
# T1 construct: gene STING1
# Assay: DARTS in Jurkat and Hut102 cell lysates ([…]); weaker than NeoL
# Type: cell-based
# T1 sequence (Q86WV6 whole entry): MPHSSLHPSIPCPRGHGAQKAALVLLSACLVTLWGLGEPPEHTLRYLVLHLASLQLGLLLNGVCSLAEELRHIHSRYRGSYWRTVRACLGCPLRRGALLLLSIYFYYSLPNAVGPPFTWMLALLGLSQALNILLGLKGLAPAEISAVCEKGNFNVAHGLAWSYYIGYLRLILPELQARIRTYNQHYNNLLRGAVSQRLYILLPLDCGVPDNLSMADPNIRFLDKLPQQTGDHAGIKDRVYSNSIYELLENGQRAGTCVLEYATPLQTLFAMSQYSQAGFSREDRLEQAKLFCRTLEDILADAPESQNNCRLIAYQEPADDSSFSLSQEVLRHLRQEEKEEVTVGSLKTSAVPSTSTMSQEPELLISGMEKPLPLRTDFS
compound,measurement,value
"COc1ccc(C[C@@H]2c3cc(Oc4cc(C[C@@H]5c6cc(O)c(OC)cc6CCN5C)ccc4O)c(OC)cc3CCN2C)cc1 [IsoL, isoliensinine]",DARTS in Jurkat and Hut102 cell lysates (80 μmol/L); weaker than NeoL,incubation with NeoL and IsoL led to increased STING in the Jurkat and Hut102 cell lysates
